Reference: patent publication US20050123478A1, “Agent for measurement of singlet oxygen” (Daiichi Pure Chemicals Co., Ltd, priority 2000, published 2005)

Tests used:
[1] = Light stability (photobleaching) of the endoperoxide under continuous excitation light; type: physicochemical; conditions: 5.0 μM aqueous solution, 0.1 M phosphate buffer (pH 7.4), 0.1% DMSO, excitation light 491 nm, 37° C., fluorescence at 520 nm
Description: 5.0 μM aqueous solutions of DMAX-EP (endoperoxide of Compound 11 in the above scheme) and DPAX-1-EP (endoperoxide of Compound 13 described in International Patent Publication WO99/51586, Example 1) [0.1 M phosphate buffer (pH 7.4) containing 0.1% DMSO as a cosolvent]were each placed in a fluorescent cell and exposed to an excitation light of 491 nm at 37° C. with stirring, and fluorescence was measured at 520 nm by using a fluorometer while the solution was continuously exposed to the excitation light.

[2] = Measurement of singlet oxygen generated by naphthalene endoperoxide EP-1 (fluorescence)
Description: Singlet oxygen was generated continuously with time under a neutral condition at 37° C. in given amounts by using a naphthalene endoperoxide compound EP-1 (Saito, I, et al., J. Am. Chem. Soc., 107, pp. 6329-6334, 1985) as a singlet oxygen generation system. Fluorescence was measured in the presence of DMAX and DPAX-1 [100 mM phosphate buffer (pH 7.4), DMSO (0.1%)].

Compound | Photobleaching, times slower than that of DPAX-1-EP [1] | Increase of fluorescence intensity with 0.5 mM EP-1 compared with 10 mM EP-1 in the presence of DPAX-1 ([2]; 100 mM phosphate buffer (pH 7.4), DMSO (0.1%), 37° C.) | Fluorescence intensity on generation of singlet oxygen ([2]; EP-1 increased from 0.1 mM to 0.5 mM and to 1.0 mM, 100 mM phosphate buffer (pH 7.4), DMSO (0.1%), 37° C.) | Sensitivity for singlet oxygen compared with DPAX-1 ([2]; EP-1 singlet oxygen generation system, pH 7.4, 37° C.)
CC12OOC(C)(c3ccccc31)c1cc(-c3c4ccc(=O)cc-4oc4cc(O)ccc34)c(C(=O)O)cc12 (stereo not shown) [DMAX-EP] | 54 times | – | – | –
Cc1c2ccccc2c(C)c2cc(-c3c4ccc(=O)cc-4oc4cc(O)ccc34)c(C(=O)O)cc12 [DMAX] | – | far larger | increase of fluorescence intensity dependent on the generated amount of singlet oxygen | much higher sensitivity
